Test results reported in patent US20050096349A1, “Methods to prevent or ameliorate medication-, procedure-or stress-induced cognitive and speech dysfunction and methods to optimize cognitive and speech functioning” (priority 2003, published 2005).

Experiments:
[1] = tested on: feeling "cloudy" and "disoriented"; assay: Example 3: case report, atomoxetine added for feeling cloudy and disoriented on olanzapine, clonazepam, fiorinal; format: in vivo, patient
Experimental: Patient is a person with major depression, panic, generalized anxiety disorder, chronic headaches and fibromyalgia. They are on escitalopram 20 mg po qd, olanzapine 7.5 mg po qhs, clonazepam 0.5 mg po bid, and fiorinal prn. […] Atomoxetine was initiated at 18 mg po qd and increased to 25 mg po qd after 8 days.

word finding difficulty = assay: Example 1: case report, atomoxetine added for word finding difficulty on topiramate; format: in vivo, patient; conditions: for word finding (patient description): person on topiramate
Source text: (§1) Patient is a person with compulsive shopping (impulse control disorder, not otherwise specified), type II diabetes, and obesity. They have no other psychiatric disorders including mood or anxiety disorders.

[2] = tested on: feeling dull and having difficulty concentrating
[3] = tested on: compulsive shopping (impulse control disorder, not otherwise specified); assay: Example 1: case report, topiramate for compulsive shopping; format: in vivo, patient
Source text: as §1

| Compound | duration of stable effect ([1]; atomoxetine 25 mg po qd) [months] | tolerability of other medications in terms of cognitive functioning ([1]; on atomoxetine 25 mg po qd) | concentration, attention, focus (patient description) ([1]; person on escitalopram, olanzapine, clonazepam, fiorinal, atomoxetine 18 mg po qd increased to 25 mg po qd after 8 days) | tolerability of higher topiramate dose (word finding difficulty; atomoxetine 40 mg po qd, tolerated for 2 months) | word finding (patient description) (word finding difficulty; atomoxetine 25 mg po qd, over the next month) | word finding (patient description) (word finding difficulty; atomoxetine 40 mg po qd, over the following month) | improvement compared with 25 mg (patient description) ([2]; atomoxetine 40 mg po qd) | side effects ([2]; atomoxetine 40 mg po qd) | concentration and side effects ([2]; atomoxetine alternating 25 mg and 40 mg po qd every other day) | tolerability of effective dose of alpraxolam (2-4 mg/day) ([2]; on atomoxetine alternating 25 mg and 40 mg po qd) | concentration and ability to work (patient description) ([2]; person on escitalopram 20 mg po qd and alprazolam, atomoxetine 25 mg po qd, within a few days) | weight ([3]; higher dosages of topiramate) | urges and control over shopping behaviors ([3]; person, topiramate dose slowly increased) | cognitive side effect ([3]; topiramate increased to 75 mg po qd) |
| --- | --- | --- | --- | --- | --- | --- | --- | --- | --- | --- | --- | --- | --- | --- |
| CNCC[C@@H](Oc1ccccc1C)c1ccccc1 [Atomoxetine, atomoxetine] | 2 | able to tolerate their other medications without difficulty in terms of cognitive functioning | improved concentration, attention, and “focus” | could tolerate a topiramate dose of 100 mg without difficulty | mild improvement in word finding | noticeable improvement in their word finding | did not have the same improvement as at 25 mg | felt dizzy and “spacy” | improved concentration without significant side effects | without difficulties in concentration/cognitive functioning | improved concentration and improved ability to work |  |  |  |
| CC1(C)O[C@@H]2[C@@H](CO[C@@]3(COS(N)(=O)=O)OC(C)(C)O[C@@H]23)O1 [topiramate] |  |  |  |  |  |  |  |  |  |  |  | decreased weight | decreased urges and improved control over their shopping behaviors | word finding difficulty which persisted |
